Literature values, collected in patent publication US8617611B2, “Polymeric compositions comprising therapeutic agents in crystalline phases, and methods of forming the same” (Cordis Corporation, priority 2005, dated 2013).

## COc1ccc(/C=C/C(=O)Nc2ccccc2C(=O)O)cc1OC [Tranilast]
DMSO
  solubility in dimethyl sulfoxide (DMSO): soluble
Methylene chloride
  solubility in other solvents such as methylene chloride: not soluble
